Experimental data taken from patent US12473262B2, “Aryl hydrocarbon receptor activators” (Oregon State University, priority 2019, dated 2025).
pIC50: −log10 of the molar value. Like-named read-outs stand apart in the source and are kept apart here.

How the values were obtained:
GVHD = settings: murine model; cited from earlier work
T1D = settings: murine model; cited from earlier work
[1] = acute or chronic treatment of mice, therapeutic dose; cited from earlier work
[2] = In vivo PK study, intravenous and oral administration in male mice; parameters: species or system mouse; settings: plasma; for C0: read-out: C0_Cmax
Experimental: In Vivo PK Study Pharmacokinetics of Exemplary Compounds 362 and 893 Following an Intravenous and Oral Administration in Male C57BL/6J Mice.
Male C57BL/6J mice, approximately 8-10 weeks old, were obtained from the vivarium of Fundación Ciencia & Vida Chile (Santiago, Chile). Dosing solution of Compound 362 for PO administration was formulated in a vehicle containing 40% DMSO, 20% Kolliphor EL, 40% Propylene Glycol at 0.8 mg/mL. Dosing solution of Compound 362 for IV administration was formulated in a vehicle containing 30% DMSO, 20% Kolliphor EL, 50% PBS at […].
Male […] mice, approximately 8-11 weeks old, 22-27 grams were obtained from the vivarium Fundación Ciencia & Vida Chile (Santiago, Chile). Animals were acclimated for a minimum period of 4 days upon arrival at the testing facility. Animals were weighed, identified by marking the tail with numbers using a non-toxic permanent marker and designated into the following treatment groups on the day of dosing:
Group 1 animals received an IV administration via caudal vein of 2 mg/kg PRXS0362 dosing solution.
Group 2 animals received a PO administration via feeding tubes (20 gauge) of 8 mg/kg PRXS0362 dosing solution.
Terminal whole blood was collected via cardiac puncture for group 1 at the following time points: 5, 10, 15, 30, 60, 120, 240, 360, and 480 minutes. Non-dosed mice were used to collect samples of zero time points. For the group 2 at the following time point: 15, 30, 60, 120, 240, 360, and 480 minutes.
Whole blood, approximately 300 μL per time point, was collected into microtainer tubes with EDTA (K2). Blood samples were centrifuged immediately at approximately 9,000 G at 4° C. for 5 minutes and plasma separated. Plasma samples were placed into individually labeled tubes and stored in a −80° C. freezer prior to LC/MS/MS analysis.
The whole brain was collected at each point only for both groups, for this the animals were euthanized with CO2, decapitated, the brain was extracted weighed, frozen in liquid nitrogen and stored at −80° C. prior to LC/MS/MS analysis.
Compound 893 was tested by the same protocol as above.

[3] = target: aryl hydrocarbon receptor (AhR) (Mus musculus (Mouse), UniProt P30561); assay: AhR ligand screening: AhRE-luciferase reporter in transfected Hepa1 cells; format: cell-based; settings: for Fold @ 1 nM: fold change of luciferase expression at 1 nM test compound relative to vehicle (0.1% DMSO); for Fold @ 100 nM: fold change of luciferase expression at 100 nM test compound relative to vehicle (0.1% DMSO); for Fold @ 10 uM: fold change of luciferase expression at 10 uM test compound relative to vehicle (0.1% DMSO); for Fold relative to benchmark @ 100 nM: luciferase expression at 100 nM test compound relative to 100 nM benchmark compound 11-cl-BBQ
Outline: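 Values are fold luciferase induction relative to vehicle (0.1% DMSO), read by luminometry of lysates from Hepa1 cells carrying an AhRE-driven luciferase reporter. Cells were seeded at 1×10^4 per well, grown overnight and treated with compound before lysis.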

[4] = Liver microsomal stability, mouse
Experimental: (§3) The assessment of metabolic stability of testing compounds was performed using human, mouse, rat, dog and monkey liver microsomes (20 mg protein/ml). Each reaction mixture contained 42.5 μL of 0.1 M potassium phosphate buffer pH 7.4, containing respective LM protein (final concentration 0.5 mg/ml). 2.5 μL of the compound stock solution was added in it (1 μM final concentration). The reaction was initiated by the addition of 5 μL NADPH solution (final Concentration 1 mM). At different time points (0, 5, 15, and 30 minutes), samples were quenched with 200 μL of cold acetonitrile containing ISTD Propranolol. Samples were centrifuged at 3500 rpm for 20 mM at 4° C. Supernatant was subjected to LC-MS/MS analysis for quantification. Verapamil was used as a positive control.

CYP-2B6 = CYP-2B6 (Homo sapiens (Human), UniProt P20813); assay: CYP panel profile: P450 inhibition, CYP-2B6; format: in vitro ADME; settings: human liver microsomes
Experimental: (§1) 5. CYP Panel Profile: P450 Inhibition
(§2) From 10 mM stock solutions of test compounds, a dilution plate was prepared diluting serially starting from 5 mM up to 2 μM in Acetonitrile/DMSO or Methanol/DMSO Human liver Microsomes were added at required concentration as per specific CYP isoform in a deep well assay plate (1A2, 2C9, 2D6, 2B6, 2C8, 2C19, and 3A4). Compounds were spiked in all wells from dilution plate at final concentrations starting from 50 μM up to 0.02 μM, except for positive and negative control. Specific substrate were added to all wells and reactions were pre-incubated for 10 min. To start reactions, NADPH was added to all wells at 1 mM final concentration. Assay plate was mixed by vortexing and incubated at 37° C. for […] for 3A4.20 min for (1A2, 2C9, 2B6, 2C8, 2D6) and […] for 2C19. A quencher with chilled acetonitrile suitable internal standard was added. Samples were centrifuged and supernatants were collected and subjected to LC-MS/MS analysis for determination.

CYP-2C9 = CYP-2C9 (Homo sapiens (Human), UniProt P11712); assay: CYP panel profile: P450 inhibition, CYP-2C9; format: in vitro ADME; settings: human liver microsomes
Experimental: as §1, §2

CYP-2D6 = CYP-2D6 (Homo sapiens (Human), UniProt P10635); assay: CYP panel profile: P450 inhibition, CYP-2D6; format: in vitro ADME; settings: human liver microsomes
Experimental: as §1, §2

CYP-2C19 = CYP-2C19 (Homo sapiens (Human), UniProt P33261); assay: CYP panel profile: P450 inhibition, CYP-2C19; format: in vitro ADME; settings: human liver microsomes
Experimental: as §1, §2

CYP-2C8 = CYP-2C8 (Homo sapiens (Human), UniProt P10632); assay: CYP panel profile: P450 inhibition, CYP-2C8; format: in vitro ADME; settings: human liver microsomes
Experimental: as §1, §2

CYP-1A2 = CYP-1A2 (Homo sapiens (Human), UniProt P05177); assay: CYP panel profile: P450 inhibition, CYP-1A2; format: in vitro ADME; settings: human liver microsomes; read-out: CYP-1A2 IC50
Experimental: as §1, §2

[5] = Liver microsomal stability, rat
[6] = Liver microsomal stability, human
Experimental: as §3

CYP-3A4 = CYP-3A4 (Homo sapiens (Human), UniProt P08684); assay: CYP panel profile: P450 inhibition, CYP-3A4; format: in vitro ADME; settings: human liver microsomes
Experimental: as §1, §2

in vitro [7] = settings: rat, microsomes, pH 7.4
[8] = human, microsomes, 0.5 h, 1 μM, pH 7.4
Experimental: as §3

[9] = rat, microsomes, 0.5 h, 1 μM, pH 7.4
in vitro [10] = settings: human, microsomes, pH 7.4
Experimental: as §3

[11] = mouse, microsomes, 0.5 h, 1 μM, pH 7.4
Experimental: as §3

in vitro [12] = settings: mouse, microsomes, pH 7.4
Experimental: as §3

[13] = mouse, liver microsomes, pH 7.4
[14] = human, liver microsomes, pH 7.4

Sequence of aryl hydrocarbon receptor (AhR) (P30561 10-805): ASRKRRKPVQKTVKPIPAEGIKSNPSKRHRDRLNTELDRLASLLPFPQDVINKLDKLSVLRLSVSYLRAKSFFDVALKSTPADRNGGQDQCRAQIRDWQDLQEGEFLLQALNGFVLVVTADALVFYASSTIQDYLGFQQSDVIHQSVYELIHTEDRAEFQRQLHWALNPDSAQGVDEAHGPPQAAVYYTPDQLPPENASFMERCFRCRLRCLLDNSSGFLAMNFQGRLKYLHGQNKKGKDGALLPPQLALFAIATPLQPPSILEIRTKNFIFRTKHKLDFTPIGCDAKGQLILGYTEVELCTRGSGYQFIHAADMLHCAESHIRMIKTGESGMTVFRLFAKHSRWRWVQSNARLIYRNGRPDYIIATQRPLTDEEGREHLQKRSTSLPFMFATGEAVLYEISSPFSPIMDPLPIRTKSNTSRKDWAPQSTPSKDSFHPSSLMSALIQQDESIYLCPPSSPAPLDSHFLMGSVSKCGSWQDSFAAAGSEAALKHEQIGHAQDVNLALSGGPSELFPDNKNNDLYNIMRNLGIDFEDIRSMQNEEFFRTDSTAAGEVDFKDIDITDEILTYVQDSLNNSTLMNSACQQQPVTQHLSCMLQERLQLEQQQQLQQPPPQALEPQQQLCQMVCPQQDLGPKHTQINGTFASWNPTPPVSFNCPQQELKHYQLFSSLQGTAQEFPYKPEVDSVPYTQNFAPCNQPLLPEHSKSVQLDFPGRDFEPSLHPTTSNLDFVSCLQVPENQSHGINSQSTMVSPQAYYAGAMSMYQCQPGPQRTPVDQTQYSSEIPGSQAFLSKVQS
Sequence of aryl hydrocarbon receptor (AhR) (P53762 whole entry partner): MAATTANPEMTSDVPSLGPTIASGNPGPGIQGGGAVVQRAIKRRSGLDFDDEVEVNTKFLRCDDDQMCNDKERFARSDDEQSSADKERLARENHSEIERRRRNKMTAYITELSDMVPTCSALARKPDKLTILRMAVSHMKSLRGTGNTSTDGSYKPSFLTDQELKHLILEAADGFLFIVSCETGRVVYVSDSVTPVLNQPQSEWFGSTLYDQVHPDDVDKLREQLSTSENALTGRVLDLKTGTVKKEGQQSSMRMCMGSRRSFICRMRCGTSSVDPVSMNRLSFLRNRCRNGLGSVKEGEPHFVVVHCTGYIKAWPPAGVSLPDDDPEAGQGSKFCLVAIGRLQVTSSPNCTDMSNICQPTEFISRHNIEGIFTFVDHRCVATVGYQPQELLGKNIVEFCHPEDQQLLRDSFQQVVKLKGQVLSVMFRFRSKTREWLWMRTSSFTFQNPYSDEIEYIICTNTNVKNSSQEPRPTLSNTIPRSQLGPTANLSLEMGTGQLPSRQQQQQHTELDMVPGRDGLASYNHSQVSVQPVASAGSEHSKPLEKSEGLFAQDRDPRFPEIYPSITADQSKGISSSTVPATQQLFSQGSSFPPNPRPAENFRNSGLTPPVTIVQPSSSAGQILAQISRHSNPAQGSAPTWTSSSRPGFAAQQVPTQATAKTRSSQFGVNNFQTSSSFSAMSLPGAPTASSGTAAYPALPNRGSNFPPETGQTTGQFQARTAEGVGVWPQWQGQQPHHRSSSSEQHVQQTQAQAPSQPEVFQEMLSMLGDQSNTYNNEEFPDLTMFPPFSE
Sequence of CYP-2C19 (P33261 whole entry): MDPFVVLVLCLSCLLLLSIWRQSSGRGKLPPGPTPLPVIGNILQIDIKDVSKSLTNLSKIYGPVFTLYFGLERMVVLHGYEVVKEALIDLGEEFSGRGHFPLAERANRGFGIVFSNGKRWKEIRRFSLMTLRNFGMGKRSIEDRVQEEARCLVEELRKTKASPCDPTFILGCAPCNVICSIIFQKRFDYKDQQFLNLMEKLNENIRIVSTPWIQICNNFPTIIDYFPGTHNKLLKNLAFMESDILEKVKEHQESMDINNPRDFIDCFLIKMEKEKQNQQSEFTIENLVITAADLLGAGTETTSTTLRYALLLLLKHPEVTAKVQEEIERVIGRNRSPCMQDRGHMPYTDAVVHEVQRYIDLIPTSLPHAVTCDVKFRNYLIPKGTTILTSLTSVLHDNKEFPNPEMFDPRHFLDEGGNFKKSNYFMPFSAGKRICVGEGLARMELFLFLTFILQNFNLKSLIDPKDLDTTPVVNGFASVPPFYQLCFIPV
Sequence of CYP-3A4 (P08684 whole entry): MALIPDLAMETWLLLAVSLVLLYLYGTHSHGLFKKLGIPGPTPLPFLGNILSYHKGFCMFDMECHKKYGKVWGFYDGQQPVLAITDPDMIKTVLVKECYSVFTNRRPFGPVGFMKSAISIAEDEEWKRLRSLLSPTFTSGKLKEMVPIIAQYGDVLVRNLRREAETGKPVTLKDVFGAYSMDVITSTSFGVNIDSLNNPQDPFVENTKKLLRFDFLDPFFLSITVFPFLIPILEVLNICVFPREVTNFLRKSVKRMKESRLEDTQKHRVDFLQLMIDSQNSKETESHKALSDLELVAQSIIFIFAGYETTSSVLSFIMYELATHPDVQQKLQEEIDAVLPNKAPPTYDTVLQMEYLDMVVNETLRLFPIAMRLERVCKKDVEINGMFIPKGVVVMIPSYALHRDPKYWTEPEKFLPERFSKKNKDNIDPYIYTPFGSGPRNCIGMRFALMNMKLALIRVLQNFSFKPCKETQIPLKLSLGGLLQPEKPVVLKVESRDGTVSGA
Sequence of CYP-2C9 (P11712 whole entry): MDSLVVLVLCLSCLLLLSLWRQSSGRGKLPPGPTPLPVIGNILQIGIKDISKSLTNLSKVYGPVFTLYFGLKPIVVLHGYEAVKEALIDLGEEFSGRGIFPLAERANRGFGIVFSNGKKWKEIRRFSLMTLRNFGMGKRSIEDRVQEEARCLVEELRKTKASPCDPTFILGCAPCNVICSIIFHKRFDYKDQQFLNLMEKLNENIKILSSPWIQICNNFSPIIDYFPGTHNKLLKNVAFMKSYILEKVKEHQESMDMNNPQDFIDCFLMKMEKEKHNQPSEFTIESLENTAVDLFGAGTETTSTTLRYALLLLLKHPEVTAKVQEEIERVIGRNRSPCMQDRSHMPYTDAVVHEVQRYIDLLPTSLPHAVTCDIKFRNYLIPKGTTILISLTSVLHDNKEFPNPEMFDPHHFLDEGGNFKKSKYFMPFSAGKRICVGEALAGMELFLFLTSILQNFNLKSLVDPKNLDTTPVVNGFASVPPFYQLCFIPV
Sequence of CYP-1A2 (P05177 whole entry): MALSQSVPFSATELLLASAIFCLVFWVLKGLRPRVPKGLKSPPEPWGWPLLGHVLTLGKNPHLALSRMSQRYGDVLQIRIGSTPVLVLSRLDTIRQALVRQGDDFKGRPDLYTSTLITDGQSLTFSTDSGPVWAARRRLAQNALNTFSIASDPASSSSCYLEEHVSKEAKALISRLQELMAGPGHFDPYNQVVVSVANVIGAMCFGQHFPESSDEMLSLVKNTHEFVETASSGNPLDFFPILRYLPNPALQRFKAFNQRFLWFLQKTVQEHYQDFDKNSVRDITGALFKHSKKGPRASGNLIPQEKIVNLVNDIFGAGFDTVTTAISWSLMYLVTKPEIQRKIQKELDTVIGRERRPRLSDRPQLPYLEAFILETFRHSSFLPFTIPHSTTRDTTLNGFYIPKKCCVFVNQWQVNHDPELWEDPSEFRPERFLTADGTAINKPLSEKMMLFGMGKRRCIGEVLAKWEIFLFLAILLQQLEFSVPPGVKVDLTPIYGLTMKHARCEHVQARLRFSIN
Sequence of CYP-2B6 (P20813 whole entry): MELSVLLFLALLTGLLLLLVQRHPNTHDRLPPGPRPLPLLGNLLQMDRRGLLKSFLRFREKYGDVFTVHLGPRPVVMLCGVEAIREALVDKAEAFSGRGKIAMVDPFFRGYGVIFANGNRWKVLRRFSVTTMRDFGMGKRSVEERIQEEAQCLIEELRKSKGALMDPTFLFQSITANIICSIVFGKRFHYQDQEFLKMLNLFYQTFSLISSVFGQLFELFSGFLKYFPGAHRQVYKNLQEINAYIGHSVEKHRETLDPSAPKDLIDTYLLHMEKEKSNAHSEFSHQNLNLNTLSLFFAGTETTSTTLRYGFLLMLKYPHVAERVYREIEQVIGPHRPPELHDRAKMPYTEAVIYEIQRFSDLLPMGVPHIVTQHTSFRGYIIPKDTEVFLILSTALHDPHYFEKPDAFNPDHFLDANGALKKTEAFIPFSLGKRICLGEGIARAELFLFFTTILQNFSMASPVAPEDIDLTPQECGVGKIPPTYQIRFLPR
Sequence of CYP-2D6 (P10635 whole entry): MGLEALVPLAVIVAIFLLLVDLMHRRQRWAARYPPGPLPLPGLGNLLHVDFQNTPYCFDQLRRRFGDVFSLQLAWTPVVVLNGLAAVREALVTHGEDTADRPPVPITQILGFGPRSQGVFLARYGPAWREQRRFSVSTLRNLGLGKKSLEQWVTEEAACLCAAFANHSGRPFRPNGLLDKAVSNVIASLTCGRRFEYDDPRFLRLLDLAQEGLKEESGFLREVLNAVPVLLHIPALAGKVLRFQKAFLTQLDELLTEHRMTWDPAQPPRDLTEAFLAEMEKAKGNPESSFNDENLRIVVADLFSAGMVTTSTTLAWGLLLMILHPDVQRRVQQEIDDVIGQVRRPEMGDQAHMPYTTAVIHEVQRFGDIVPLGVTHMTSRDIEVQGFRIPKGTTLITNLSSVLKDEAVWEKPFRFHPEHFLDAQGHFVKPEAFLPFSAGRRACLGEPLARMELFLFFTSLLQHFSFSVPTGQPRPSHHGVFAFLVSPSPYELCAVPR

## O=c1c2cccc3cccc(c32)c2nc3cc(Cl)ccc3n12 [Compound 11-Cl-BBQ, 11-chloro-7H-benzimidazo[2,1-a]benzo[de]-Iso-quinolin-7-one]
GVHD
  development of GVHD: suppress the development of T1D and GVHD
T1D
  development of T1D: suppress the development of T1D
[1]
  overt toxicity: no overt toxicity

## Clc1ccc2[nH]c(-c3cccc4ccccc34)cc2c1 [Compound 893, 5-chloro-2-(naphthalen-1-yl)-1H-indole]
[2]; IV 2 mg/Kg
  CL_CL/F: 4.218 L/[Kg*h]
  Vd_Vd/F: 8.777 L/kg
  thalf: 1.442 h
[2]; PO 8 mg/Kg
  CL_CL/F: 5.739 L/[Kg*h]
  Vd_Vd/F: 12.846 L/kg
  thalf: 1.551 h
[2]; mouse, IV 2 mg/Kg
  AUC(0-inf): 474 ng·h/mL
  AUC(0-t): 451 ng·h/mL
  MRT: 120 min
  C0: 174 ng/mL
[2]; mouse, PO 8 mg/Kg vs IV 2 mg/Kg
  bioavailability: 73.5%
[2]; mouse, PO 8 mg/Kg
  AUC(0-inf): 1390 ng·h/mL
  AUC(0-t): 1330 ng·h/mL
  MRT: 160 min
  Tmax: 60 min
  C0: 398 ng/mL
[3]
  Fold @ 1 nM: 1 fold
  Fold @ 100 nM: 49 fold
  Fold @ 10 uM: 49 fold
  Fold relative to benchmark @ 100 nM: 0.91 fold
[4]; mouse liver microsomes, 30 min, 1 μM compound, 0.5 mg/ml protein
  Rem @ MLM × 30 min: 16.7%
[4]; [13]
  half-life at 1 μM: 12.2 min
  microsomal CLint at 1 μM: 114 µL/min/mg
CYP-2B6
  pIC50: 5.10
CYP-2C9
  pIC50: 5.14
CYP-2D6
  pIC50: 4.50
CYP-2C19
  pIC50: 5.54
CYP-2C8
  pIC50: 5.11
CYP-1A2
  pIC50: 6.30
[5]; rat liver microsomes, 30 min, 1 μM compound, 0.5 mg/ml protein
  Rem @ RLM × 30 min: 51.7%
[5]; rat, liver microsomes, pH 7.4
  half-life at 1 μM: 35.8 min
  microsomal CLint at 1 μM: 38.8 µL/min/mg
[6]; human liver microsomes, 30 min, 1 μM compound, 0.5 mg/ml protein
  Rem @ HLM × 30 min: 19.6%
[6]; [14]
  half-life at 1 μM: 14.1 min
  microsomal CLint at 1 μM: 98.5 µL/min/mg
CYP-3A4
  pIC50: 4.63

## O=C(c1cccc2ccccc12)c1c[nH]c2cc(Cl)c(Cl)cc12 [Compound 434]
In vitro [7]
  half-life at 1 μM: 28 min
  microsomal CLint at 1 μM: 49.6 µL/min/mg
[8]
  Rem @ HLM × 30 min: 63.4%
[3]
  Fold @ 1 nM: 1 fold
  Fold @ 100 nM: 1 fold
  Fold @ 10 uM: 9 fold
  Fold relative to benchmark @ 100 nM: 0.03 fold
[9]
  Rem @ RLM × 30 min: 41.6%
In vitro [10]
  half-life at 1 μM: 48.7 min
  microsomal CLint at 1 μM: 28.5 µL/min/mg
[11]
  Rem @ MLM × 30 min: 10.6%
In vitro [12]
  half-life at 1 μM: 10.7 min
  microsomal CLint at 1 μM: 129 µL/min/mg

## O=C(c1ccc2ccccc2c1)c1c[nH]c2ccc(Cl)cc12 [Compound 885]
In vitro [7]
  half-life at 1 μM: 30.7 min
  microsomal CLint at 1 μM: 45.1 µL/min/mg
[8]
  Rem @ HLM × 30 min: 58.1%
[3]
  Fold @ 1 nM: 1 fold
  Fold @ 100 nM: 1 fold
  Fold @ 10 uM: 1 fold
  Fold relative to benchmark @ 100 nM: 0.02 fold
[9]
  Rem @ RLM × 30 min: 50.2%
In vitro [10]
  half-life at 1 μM: 36.8 min
  microsomal CLint at 1 μM: 37.7 µL/min/mg
[11]
  Rem @ MLM × 30 min: 45.1%
In vitro [12]
  half-life at 1 μM: 27.5 min
  microsomal CLint at 1 μM: 50.4 µL/min/mg
